{"source": "patent EP0153845A2", "about": "“CRF analogs” (THE SALK INSTITUTE FOR BIOLOGICAL STUDIES, priority 1984, dated 1985)", "key": {"[1]": {"assay": "Lowering of blood pressure, in vivo testing by the general procedure of Example III"}, "[2]": {"target": "T1, cultured rat pituitary cells (Rattus norvegicus, UniProt P35353)", "T1 sequence (P35353 24-415)": "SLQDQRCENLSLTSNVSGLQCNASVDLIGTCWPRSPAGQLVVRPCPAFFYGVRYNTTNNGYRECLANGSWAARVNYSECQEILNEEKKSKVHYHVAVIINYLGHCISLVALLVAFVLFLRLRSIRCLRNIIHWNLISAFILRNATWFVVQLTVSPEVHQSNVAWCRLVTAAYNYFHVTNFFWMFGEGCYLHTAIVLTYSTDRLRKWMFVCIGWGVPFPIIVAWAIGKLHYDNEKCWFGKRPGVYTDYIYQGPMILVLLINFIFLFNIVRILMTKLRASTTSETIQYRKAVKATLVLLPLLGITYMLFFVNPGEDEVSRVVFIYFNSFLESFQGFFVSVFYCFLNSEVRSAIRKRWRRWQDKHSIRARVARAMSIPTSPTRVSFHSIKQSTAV", "assay": "Stimulation of ACTH and β-endorphin secretion by cultured rat pituitary cells (general procedure of Example III)", "format": "cell-based", "details": "general procedure of Example III", "experimental": "The synthetic peptide AHC and oCRF were examined for their effects on the secretion of ACTH and B-endorphin in vitro and was also in vivo. The potency of synthetic oCRF to stimulate the secretion of ACTH and β-endorphin by cultured rat pituitary cells was measured using the procedure as generally set forth in Endocrinology, 91, 562 (1972). […] In.vivo testing is carried out using the general procedure set forth in C. Rivier et al., Science, 218, 377 (1982)."}}, "note": "Square brackets hold non-standard residues; d marks the D form. Ends that are not written are not given here. Peptide text beside a SMILES is read from it. hArg = N=C(N)NCCCC[C@H](N)C(=O)O; Nle = CCCC[C@H](N)C(=O)O; Orn = NCCC[C@H](N)C(=O)O", "data": [{"compound": "H-SEEPPISLDLTLELLREMLEME[Orn]AEKEAEQAALNRLLLEEA-NH2", "values": [{"measurement": "lowering of blood pressure", "setting": "[1]", "result": "very significant lowering of blood pressure"}, {"measurement": "secretion of ACTH and β-END-LI", "setting": "[2]", "result": "stimulates"}]}, {"compound": "SEEPPISLDLTFHLLREVLEMTRAEQLAEQAHSNRKLMEEI-NH2 [[Thr^22, Glu^29,40]-rCRF]", "values": [{"measurement": "lowering of blood pressure", "setting": "[1]", "result": "very significant lowering of blood pressure"}, {"measurement": "secretion of ACTH and β-END-LI", "setting": "[2]", "result": "stimulates"}]}, {"compound": "CC[C@H](C)[C@H](NC(=O)[C@@H]1CCCN1C(=O)[C@@H]1CCCN1)C(=O)N[C@@H](CO)C(=O)N[C@@H](CC(C)C)C(=O)N[C@@H](CC(=O)O)C(=O)N[C@@H](CC(C)C)C(=O)N[C@H](C(=O)N[C@@H](CC(C)C)C(=O)N[C@@H](Cc1c[nH]cn1)C(=O)N[C@@H](CC(C)C)C(=O)N[C@@H](CC(C)C)C(=O)N[C@@H](CCCNC(=N)N)C(=O)N[C@@H](CCC(=O)O)C(=O)N[C@@H](CCSC)C(=O)N[C@@H](CC(C)C)C(=O)N[C@@H](CCC(=O)O)C(=O)N[C@@H](CCSC)C(=O)N[C@@H](CCC(=O)O)C(=O)N[C@@H](CCCN)C(=O)N[C@@H](C)C(=O)N[C@@H](CCC(=O)O)C(=O)N[C@@H](CCC(N)=O)C(=O)N[C@@H](CCC(=O)O)C(=O)N[C@@H](C)C(=O)N[C@@H](CCC(=O)O)C(=O)N[C@@H](CCC(N)=O)C(=O)N[C@@H](C)C(=O)N[C@@H](C)C(=O)N[C@@H](CC(C)C)C(=O)N[C@@H](CC(N)=O)C(=O)N[C@@H](CCCNC(=N)N)C(=O)N[C@@H](CCCCNC(=N)N)C(=O)N[C@@H](CC(C)C)C(=O)N[C@@H](CC(C)C)C(=O)N[C@@H](CCC(=O)O)C(=O)N[C@@H](CCC(=O)O)C(=O)N[C@@H](C)C(N)=O)[C@@H](C)O", "note": "(H-PPISLDLTLHLLREMLEME[Orn]AEQEAEQAALNR[hArg]LLEEA-NH2)", "values": [{"measurement": "lowering of blood pressure", "setting": "[1]", "result": "very significant lowering of blood pressure"}, {"measurement": "secretion of ACTH and β-END-LI", "setting": "[2]", "result": "stimulates"}]}, {"compound": "CCCC[C@H](NC(=O)[C@H](CCC(=O)O)NC(=O)[C@H](CCCNC(=N)N)NC(=O)[C@H](CC(C)C)NC(=O)[C@H](CC(C)C)NC(=O)[C@H](Cc1c[nH]cn1)NC(=O)[C@H](Cc1ccccc1)NC(=O)[C@@H](NC(=O)[C@H](CC(C)C)NC(=O)[C@H](CC(=O)O)NC(=O)[C@H](CC(C)C)NC(=O)[C@H](CO)NC(=O)[C@@H](NC(=O)[C@@H]1CCCN1C(=O)[C@@H]1CCCN1C(=O)[C@H](CCC(=O)O)NC(=O)[C@@H](N)CCC(N)=O)[C@@H](C)CC)[C@@H](C)O)C(=O)N[C@@H](CC(C)C)C(=O)N[C@@H](CCC(=O)O)C(=O)N[C@@H](CCSC)C(=O)N[C@H](C(=O)N[C@@H](CCCCN)C(=O)N[C@@H](C)C(=O)N[C@@H](CC(=O)O)C(=O)N[C@@H](CCC(N)=O)C(=O)N[C@@H](CC(C)C)C(=O)N[C@@H](C)C(=O)N[C@@H](CCC(N)=O)C(=O)N[C@@H](CCC(N)=O)C(=O)N[C@@H](C)C(=O)N[C@@H](Cc1c[nH]cn1)C(=O)N[C@@H](CO)C(=O)N[C@@H](CC(N)=O)C(=O)N[C@@H](CCCNC(=N)N)C(=O)N[C@@H](CCCCN)C(=O)N[C@@H](Cc1ccc(O)cc1)C(=O)N[C@@H](CC(C)C)C(=O)N[C@@H](CC(=O)O)C(=O)N[C@@H](CCC(=O)O)C(=O)N[C@@H](C)C(N)=O)[C@@H](C)O", "note": "[[Nle^18,Tyr^37,Glu^40]-oCRF(2-41)] (H-QEPPISLDLTFHLLRE[Nle]LEMTKADQLAQQAHSNRKYLDEA-NH2)", "values": [{"measurement": "lowering of blood pressure", "setting": "[1]", "result": "very significant lowering of blood pressure"}, {"measurement": "secretion of ACTH and β-END-LI", "setting": "[2]", "result": "stimulates"}]}, {"compound": "H-PPISIDLSLELLRKMIEIAKQEKEKEQAANNRLLMDTI-NH2", "values": [{"measurement": "lowering of blood pressure", "setting": "[1]", "result": "very significant lowering of blood pressure"}, {"measurement": "secretion of ACTH and β-END-LI", "setting": "[2]", "result": "stimulates"}]}, {"compound": "CC[C@H](C)[C@H](NC(=O)[C@@H](NC(=O)[C@H](CC(=O)O)NC(=O)[C@H](CC(C)C)NC(=O)[C@H](CC(C)C)NC(=O)[C@H](CC(C)C)NC(=O)[C@H](CCCNC(=N)N)NC(=O)[C@H](CC(N)=O)NC(=O)[C@H](CC(N)=O)NC(=O)[C@H](C)NC(=O)[C@H](C)NC(=O)[C@H](CCC(N)=O)NC(=O)[C@H](CCC(=O)O)NC(=O)[C@H](CCCCN)NC(=O)[C@H](CCC(=O)O)NC(=O)[C@H](CCCCN)NC(=O)[C@H](CCC(=O)O)NC(=O)[C@H](CCC(N)=O)NC(=O)[C@H](CCCCN)NC(=O)[C@H](CCCNC(=N)N)NC(=O)[C@H](C)NC(=O)[C@H](CCC(=O)O)NC(=O)[C@@H](NC(=O)[C@H](CCSC)NC(=O)[C@H](CCCCN)NC(=O)[C@H](CCCNC(=N)N)NC(=O)[C@H](CC(C)C)NC(=O)[C@H](CC(C)C)NC(=O)[C@H](CCC(=O)O)NC(=O)[C@H](CC(C)C)NC(=O)[C@H](CO)NC(=O)[C@H](CC(C)C)NC(=O)[C@H](CC(=O)O)NC(=O)[C@@H](NC(=O)[C@H](CO)NC(=O)[C@@H](NC(=O)[C@@H]1CCCN1C(=O)[C@@H]1CCCN1C(=O)CNC(=O)[C@@H]1CCC(=O)N1)[C@@H](C)CC)[C@@H](C)CC)[C@@H](C)CC)[C@@H](C)CC)C(N)=O", "values": [{"measurement": "lowering of blood pressure", "setting": "[1]", "result": "very significant lowering of blood pressure"}, {"measurement": "secretion of ACTH and β-END-LI", "setting": "[2]", "result": "stimulates"}]}, {"compound": "H-SQEPPISLELTFHLLRE[Nle]LE[Nle]AKAEQEAEQAALNRLLLEEA-NH2 [[Glu^9, Nle^18' ^21]-AHC]", "values": [{"measurement": "lowering of blood pressure", "setting": "[1]", "result": "very significant lowering of blood pressure"}, {"measurement": "secretion of ACTH and β-END-LI", "setting": "[2]", "result": "stimulates"}]}, {"compound": "Ac-GEEPPISLDLTFHLLREVLEMARAEQLAQQAHLNRKLMEEI-NH2 [[Acetyl-Gly^1, Leu^33, Glu^40]-rCRF]", "values": [{"measurement": "lowering of blood pressure", "setting": "[1]", "result": "very significant lowering of blood pressure"}, {"measurement": "secretion of ACTH and β-END-LI", "setting": "[2]", "result": "stimulates"}]}, {"compound": "CCCC[C@H](NC(=O)[C@H](CCC(=O)O)NC(=O)[C@H](CC(C)C)NC(=O)[C@H](CCCC)NC(=O)[C@H](CCC(=O)O)NC(=O)[C@H](CCCNC(=N)N)NC(=O)[C@H](CC(C)C)NC(=O)[C@H](CC(C)C)NC(=O)[C@H](Cc1c[nH]cn1)NC(=O)[C@H](Cc1ccccc1)NC(=O)[C@@H](NC(=O)[C@H](CC(C)C)NC(=O)[C@H](CC(=O)O)NC(=O)[C@H](CC(C)C)NC(=O)[C@H](CO)NC(=O)[C@@H](N)[C@@H](C)CC)[C@@H](C)O)C(=O)N[C@@H](C)C(=O)N[C@@H](CCCCN)C(=O)N[C@@H](C)C(=O)N[C@@H](CCC(=O)O)C(=O)N[C@@H](CCC(N)=O)C(=O)N[C@@H](CCC(=O)O)C(=O)N[C@@H](C)C(=O)N[C@@H](CCC(=O)O)C(=O)N[C@@H](CCC(N)=O)C(=O)N[C@@H](C)C(=O)N[C@@H](C)C(=O)N[C@@H](CC(C)C)C(=O)N[C@@H](CC(N)=O)C(=O)N[C@@H](CCCNC(=N)N)C(=O)N[C@@H](CCCNC(=N)N)C(=O)N[C@@H](CC(C)C)C(=O)N[C@@H](CC(C)C)C(=O)N[C@@H](CCC(=O)O)C(=O)N[C@@H](CCC(=O)O)C(=O)N[C@@H](C)C(N)=O", "note": "[[Nle^18,21, Arg^36]-AHC(6-41)] (H-ISLDLTFHLLRE[Nle]LE[Nle]AKAEQEAEQAALNRRLLEEA-NH2)", "values": [{"measurement": "lowering of blood pressure", "setting": "[1]", "result": "very significant lowering of blood pressure"}, {"measurement": "secretion of ACTH and β-END-LI", "setting": "[2]", "result": "stimulates"}]}, {"compound": "CCCC[C@H](NC(=O)[C@H](CCC(=O)O)NC(=O)[C@H](CC(C)C)NC(=O)[C@H](CCCC)NC(=O)[C@H](CCC(=O)O)NC(=O)[C@H](CCCNC(=N)N)NC(=O)[C@H](CC(C)C)NC(=O)[C@H](CC(C)C)NC(=O)[C@H](Cc1c[nH]cn1)NC(=O)[C@H](Cc1ccccc1)NC(=O)[C@@H](NC(=O)[C@H](CC(C)C)NC(=O)[C@H](CC(=O)O)NC(=O)[C@H](CC(C)C)NC(=O)[C@H](CO)NC(=O)[C@@H](NC(=O)[C@@H]1CCCN1C(=O)[C@@H]1CCCN1C(=O)[C@H](N)Cc1ccc(O)cc1)[C@@H](C)CC)[C@@H](C)O)C(=O)N[C@@H](C)C(=O)N[C@@H](CCCCN)C(=O)N[C@@H](C)C(=O)N[C@@H](CCC(=O)O)C(=O)N[C@@H](CCC(N)=O)C(=O)N[C@@H](CCC(=O)O)C(=O)N[C@@H](C)C(=O)N[C@@H](CCC(=O)O)C(=O)N[C@@H](CCC(N)=O)C(=O)N[C@@H](C)C(=O)N[C@@H](C)C(=O)N[C@@H](CC(C)C)C(=O)N[C@@H](CC(N)=O)C(=O)N[C@@H](CCCNC(=N)N)C(=O)N[C@@H](CC(C)C)C(=O)N[C@@H](CC(C)C)C(=O)N[C@@H](CC(C)C)C(=O)N[C@@H](CCC(=O)O)C(=O)N[C@@H](CCC(=O)O)C(=O)N[C@@H](C)C(N)=O", "note": "[[D-Tyr^3, Nle^18,21)-AHC(3-41)] (H-[dY]PPISLDLTFHLLRE[Nle]LE[Nle]AKAEQEAEQAALNRLLLEEA-NH2)", "values": [{"measurement": "lowering of blood pressure", "setting": "[1]", "result": "very significant lowering of blood pressure"}, {"measurement": "secretion of ACTH and β-END-LI", "setting": "[2]", "result": "stimulates"}]}, {"compound": "H-SEEPPISLELTFHLLREVLE[Nle]ARAEQLAEQAHLNRKLMEII-NH2 [[Glu^9, Nle^21, Glu^29, Leu^33]-rCRF]", "values": [{"measurement": "lowering of blood pressure", "setting": "[1]", "result": "very significant lowering of blood pressure to a greater extent than rCRF"}, {"measurement": "secretion of ACTH and β-END-LI", "setting": "[2]", "result": "stimulates"}]}]}
